In patent publication US10760052B2, “Method of inhibiting tau phosphorylation” (priority 2012, dated 2020):

Key:
α7nAChR (Aβ42 binding) = test: FITC-Aβ42 binding to biotinylated α7nAChR-containing SK-N-MC cell fragments; design: species or system human; settings: added simultaneously, 30° C., 30 minutes
FLNA = target: T1, FLNA (Homo sapiens, UniProt P21333); test: [3H]NLX competition binding to FLNA in A7 cell membranes; settings: 0.5 nM [3H]NLX, N=4, read-out: IC50-L, inhibition of [3H]NLX binding
T1 construct: validate the use of that 5-mer peptide as a surrogate for the complete molecule in the assays carried out herein; host or cells: A7 cells

[1] = target: T2, FLNA-α7nAChR/TLR4 and Aβ42-α7nAChR complexes (Homo sapiens, UniProt P21333); test: FLNA-α7nAChR/TLR4 and Aβ42-α7nAChR associations in AD and Aβ42-treated control lymphocytes; type: cell-based; settings: 1 nM, 30 minutes
T2 construct: endogenous in cells; host or cells: lymphocytes of AD patients and control subjects
T2 sequence (P21333 2-2647, one chain of several): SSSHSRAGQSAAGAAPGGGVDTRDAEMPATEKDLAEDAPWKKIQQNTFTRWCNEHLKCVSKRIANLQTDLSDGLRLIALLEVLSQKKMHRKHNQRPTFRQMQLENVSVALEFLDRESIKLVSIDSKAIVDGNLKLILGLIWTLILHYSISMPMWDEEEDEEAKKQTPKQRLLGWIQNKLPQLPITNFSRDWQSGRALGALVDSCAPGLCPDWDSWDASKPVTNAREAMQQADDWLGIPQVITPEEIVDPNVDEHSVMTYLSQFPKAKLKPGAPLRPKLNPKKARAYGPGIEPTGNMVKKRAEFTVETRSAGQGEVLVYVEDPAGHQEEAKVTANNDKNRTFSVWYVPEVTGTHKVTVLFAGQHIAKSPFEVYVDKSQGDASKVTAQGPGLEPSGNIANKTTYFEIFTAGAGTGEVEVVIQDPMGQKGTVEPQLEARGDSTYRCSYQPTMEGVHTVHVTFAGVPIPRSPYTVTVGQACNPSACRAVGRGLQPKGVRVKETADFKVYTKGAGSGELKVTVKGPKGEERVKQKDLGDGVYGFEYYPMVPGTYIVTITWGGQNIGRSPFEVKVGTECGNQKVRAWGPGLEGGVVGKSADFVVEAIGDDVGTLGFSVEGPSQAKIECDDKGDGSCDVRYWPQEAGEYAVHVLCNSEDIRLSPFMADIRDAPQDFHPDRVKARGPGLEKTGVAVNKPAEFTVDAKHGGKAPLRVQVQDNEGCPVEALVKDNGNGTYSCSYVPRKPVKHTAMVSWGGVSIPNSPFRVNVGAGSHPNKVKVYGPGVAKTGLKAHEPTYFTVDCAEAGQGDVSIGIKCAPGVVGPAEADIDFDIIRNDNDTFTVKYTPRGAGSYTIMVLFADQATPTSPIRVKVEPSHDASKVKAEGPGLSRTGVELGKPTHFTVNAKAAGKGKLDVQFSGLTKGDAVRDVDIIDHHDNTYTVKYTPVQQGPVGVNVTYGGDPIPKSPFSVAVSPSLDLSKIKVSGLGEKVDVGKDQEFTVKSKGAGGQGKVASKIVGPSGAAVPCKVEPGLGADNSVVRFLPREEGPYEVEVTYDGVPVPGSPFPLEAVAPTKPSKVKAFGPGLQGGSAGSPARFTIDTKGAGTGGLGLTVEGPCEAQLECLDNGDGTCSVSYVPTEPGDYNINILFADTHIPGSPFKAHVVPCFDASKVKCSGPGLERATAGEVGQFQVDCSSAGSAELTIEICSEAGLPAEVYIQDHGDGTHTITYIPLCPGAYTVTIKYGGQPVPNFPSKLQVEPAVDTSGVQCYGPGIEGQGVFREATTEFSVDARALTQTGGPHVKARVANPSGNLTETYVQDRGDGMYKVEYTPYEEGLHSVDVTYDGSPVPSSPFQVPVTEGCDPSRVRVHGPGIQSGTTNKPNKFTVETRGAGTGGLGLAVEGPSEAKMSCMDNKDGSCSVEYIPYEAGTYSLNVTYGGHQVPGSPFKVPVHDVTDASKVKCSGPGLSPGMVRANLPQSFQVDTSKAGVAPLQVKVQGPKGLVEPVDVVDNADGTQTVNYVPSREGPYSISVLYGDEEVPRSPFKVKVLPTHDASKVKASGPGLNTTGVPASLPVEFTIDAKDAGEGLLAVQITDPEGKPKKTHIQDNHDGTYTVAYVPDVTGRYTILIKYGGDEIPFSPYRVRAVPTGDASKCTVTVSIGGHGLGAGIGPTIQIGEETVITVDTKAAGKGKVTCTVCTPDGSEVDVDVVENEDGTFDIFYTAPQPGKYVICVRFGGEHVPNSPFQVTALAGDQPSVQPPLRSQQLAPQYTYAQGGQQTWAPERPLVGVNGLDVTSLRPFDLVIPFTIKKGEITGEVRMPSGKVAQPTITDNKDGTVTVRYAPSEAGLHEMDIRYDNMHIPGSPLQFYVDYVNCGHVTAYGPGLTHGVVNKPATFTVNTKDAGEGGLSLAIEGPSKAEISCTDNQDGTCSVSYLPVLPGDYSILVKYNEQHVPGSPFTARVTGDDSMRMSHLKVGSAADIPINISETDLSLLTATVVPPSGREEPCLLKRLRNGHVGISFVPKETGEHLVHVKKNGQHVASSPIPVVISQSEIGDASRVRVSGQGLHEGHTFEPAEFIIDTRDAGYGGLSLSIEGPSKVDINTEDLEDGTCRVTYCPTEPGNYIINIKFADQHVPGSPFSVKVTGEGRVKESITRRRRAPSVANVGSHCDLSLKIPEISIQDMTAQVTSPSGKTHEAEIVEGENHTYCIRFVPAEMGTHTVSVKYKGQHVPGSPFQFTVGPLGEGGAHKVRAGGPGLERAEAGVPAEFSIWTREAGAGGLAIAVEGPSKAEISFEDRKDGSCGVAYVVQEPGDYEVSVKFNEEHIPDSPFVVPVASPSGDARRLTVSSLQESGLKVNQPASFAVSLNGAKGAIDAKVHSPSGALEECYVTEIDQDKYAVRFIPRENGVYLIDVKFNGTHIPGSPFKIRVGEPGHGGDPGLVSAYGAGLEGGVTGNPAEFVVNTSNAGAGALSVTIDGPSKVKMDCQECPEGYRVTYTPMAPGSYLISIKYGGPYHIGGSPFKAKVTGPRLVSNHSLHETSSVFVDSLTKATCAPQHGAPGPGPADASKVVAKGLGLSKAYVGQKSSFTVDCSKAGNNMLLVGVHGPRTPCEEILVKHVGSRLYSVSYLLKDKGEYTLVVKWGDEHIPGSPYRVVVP
Protocol: Because lymphocytes contain α7nAChR and TLR4, whether the associations of these receptors with FLNA are increased in the lymphocytes of AD patients and whether Compound C0105 treatment ex vivo could disrupt these associations were assessed. Also assayed was the effect of Compound C0105 on Aβ42-α7nAChR complexes in AD lymphocytes and Aβ42-treated lymphocytes from age-matched control subjects.

FLNA-α7nAChR association = test: FLNA association with α7nAChR in organotypic frontocortical slice cultures; type: cell-based, rat; settings: 100 nM Aβ42, 16 hours, compound added simultaneously
Protocol: Tissue was harvested and solubilized, and a specific antibody against FLNA was used to immunoprecipitate FLNA and associated proteins. The FLNA immunoprecipitate was size-fractionated using SDS-PAGE, transferred and probed with specific antibodies directed against each of the following receptors: α7nAChR, TLR4, IR and MOR.
Rat brain slice organotypic culture methods were modified from those published previously. [Adamchik et al., Brain Res Brain Res Protoc 5:153-158 (2000).] FCX slices ([…]) were transferred to sterile, porous Millicell-CM inserts (0.4 μm). Each culture insert unit contained two brain slices and was placed into individual wells of a 12-well culture tray in 2 ml medium: 50% MEM with Earl's salts, 2 mM L-glutamine, 25% Earl's balanced salt solution, 6.5 g/l D-glucose, 20% fetal bovine serum (FBS), 5% horse serum, 25 mM HEPES buffer, pH 7.2, and […]. […]
The level of FLNA-associated α7nAChRs was determined using a co-immunoprecipitation/Western blotting method as described previously. […] The levels of FLNA-associated α7nAChR, TLR4, IR and MOR were assessed by Western blotting using specific antibodies directed against the respective proteins and the blot stripped and re-probed for FLNA for immunoprecipitation/loading control.

[2] = tested on: tau (pSer202, pThr231, pThr181); test: Tau phosphorylation in organotypic frontocortical slice cultures; type: cell-based, rat; settings: C0105 0.1, 1, 10 nM; C0114 1, 10 nM; simultaneous with Aβ42
Protocol: On the day of study, medium was removed, the brain slices rinsed and incubated in 0.1% FBS-containing medium for 4 hours at 36° C. in 5% CO2.
The levels of phosphorylated tau (pSer202tau, pThr231tau and pThr181tau) as well as total tau precipitated (loading controls) are assessed by Western blotting using specific antibodies directed against each of the phosphoepitopes and the anti-tau, respectively.

NFT and Aβ42 aggregates [3] = test: Immunohistochemistry of NFT and Aβ42 aggregates in slice cultures; type: cell-based, rat; settings: slice cultures incubated with Aβ42
Protocol: For immunohistochemistry, additional slices were removed and fixed in 4% paraformaldehyde in PBS at 4° C.
(§1) One section was immunostained with anti-NFT or -PHF.
Specimens were examined using a Nikon FXA microscope with a Princeton Instruments CCD camera and recorded digitally.
(§2) The correlations between the amount of NFT/PHF immunoreactivity and Aβ42-positive material accumulated within mature neurons were also determined.

NMDAR [4] = type: in vivo, mouse; settings: 10 mg/kg twice daily
NFT and Aβ42 aggregates [5] = test: ICV Aβ42 infusion mouse model: immunohistochemistry of NFT and Aβ42 aggregates; type: in vivo; settings: 10 mg/kg twice daily
Protocol: as §1
Brain tissues were fixed at 4° C. in 0.15 M phosphate-buffered 10% formalin, pH 7.4 for 2 weeks, paraffin embedded, serially sectioned at 5 μm, and processed for brightfield immunohistochemistry as described. The […] but not Aβ42-1. Specimens were examined using a Nikon FXA microscope with a Princeton Instruments CCD camera and recorded digitally.
as §2

α7nAChR-FLNA complex = target: T3, α7nAChR-FLNA complex (Homo sapiens, UniProt P21333); test: Postmortem human frontal cortex: α7nAChR-FLNA association; type: cell-based; settings: AD and Aβ42-treated control tissue; 0.1 or 1 nM
T3 construct: from tissue; host or cells: postmortem frontal cortex slices / synaptosomes (AD and control subjects)
T3 sequence (P21333 2-2647, one chain of several): as above
Protocol: Postmortem frontal cortex tissues were gradually thawed (from −80° C. to −20° C.) and were sliced using a chilled McIlwain tissue chopper (200 μm×200 μm×3 mm). […] Following two additional washes with 1 ml of ice-cold K-R, brain slices were suspended in 1 ml of K-R.
Incubation continued for 1 hour in the dark to minimize light destruction of the test agents. […] Reaction was terminated by the addition of 1.5 ml of ice-cold Ca^2+-free K-R. Tissue slices were harvested by a brief centrifugation and used as the tissue sources for various assays.

NMDAR [6] = type: cell-based, human; settings: AD and Aβ42-treated control brain slices
[7] = tested on: tau (pSerine202, pThreonine231, pThreonine181); test: LPS-induced tau phosphorylation in postmortem human hippocampal slices; type: cell-based; settings: 1 nM compound, 1 hour
Protocol: The three phosphoepitopes of tau were detected in immunoprecipitates using specific antibodies using Western blots (WB).
The slices are carefully separated in 10 ml of oxygenated ice-cold dissection medium with two pairs of fine forceps and gentle shaking.
The reaction was terminated by diluting with 1.5 ml of ice-cold 1 mM EDTA-containing Ca^2+-free Kreb's-Ringer and centrifuged for 10 minutes at 15,000×g (4° C.).
After removal of the supernatant, the slices were homogenized to prepare post-mitochondrial (P2) fraction.
The anti-tau immunocomplexes were enriched by incubation with 50 μl of protein A/G-conjugated agarose beads at 4° C. and centrifugation.

CN1CCC2(CC1)NCC(=O)N2Cc1ccccc1 [Compound C0105]
Inhibition of FITC-Aβ42 binding (α7nAChR (Aβ42 binding); 0.1 nM compound): 52.3±3.7%
Inhibition of FITC-Aβ42 binding (α7nAChR (Aβ42 binding); 1 nM compound): 55.1±3.0%
Inhibition of FITC-Aβ42 binding (α7nAChR (Aβ42 binding); 10 nM compound): 56.5±4.2%
IC50 (FLNA): 0.226 nM
FLNA associations with α7nAChR and TLR4 in lymphocytes [1]: significantly reduced
Aβ42-induced increase in FLNA-α7nAChR association (FLNA-α7nAChR association): reduced the Aβ42-induced increase in FLNA-α7nAChR association at 0.1, 1 and 10 nM
Aβ42-induced tau phosphorylation [2]: reduced tau phosphorylation at all three phosphorylation sites
Aβ42 aggregates immunostaining (NFT and Aβ42 aggregates [3]): dramatically reduces
NFT immunostaining (pTau) (NFT and Aβ42 aggregates [3]): dramatically reduces
Aβ42-induced NMDAR dysfunction (calcium influx after NMDA and glycine) (NMDAR [4]): restored the Aβ42-induced NMDAR dysfunction
Amyloid deposits (IHC, FCX and HP) (NFT and Aβ42 aggregates [5]): prevents
NFT formation (IHC, FCX and HP) (NFT and Aβ42 aggregates [5]): prevents
FLNA association with α7nAChR (α7nAChR-FLNA complex): reduces Aβ42-induced FLNA association with α7nAChR and TLR4
Functioning of NMDAR (calcium influx after receptor stimulation) (NMDAR [6]): preserves functioning
LPS-induced tau phosphorylation [7]: reduces LPS-induced tau phosphorylation
